Measured values from US4935418A, “Medical compositions of 1-aryloxy-2,3,4,5-tetrahydro-3-benzazepines and use thereof” (Hoechst-Roussel Pharmaceuticals Inc., priority 1988, dated 1990).
Where a name gives a salt, the structure may show the parent alone.

How the values were obtained:
Format in all cases: in vivo
[1] = system: 2-phenyl-1,4-benzoquinone-induced writhing in mice; assay: 2-phenyl-1,4-benzoquinone-induced writhing test in mice; conditions: Mus musculus, sc
Description: The compounds of the invention are also useful as analgesic agents due to their ability to alleviate pain in mammals. […] Exptl. Biol. Med., 95, 729 (1957)].

[2] = system: tetrabenazine induced ptosis in mice; assay: inhibition of tetrabenazine induced ptosis in mice; conditions: Mus musculus, oral, read-out: ED50 (50% inhibition of tetrabenazine-induced ptosis)
Description: The antidepressant activities of some of the compounds of the invention expressed in terms of a 50% inhibition of ptosis of tetrabenazine-induced ptosis in mice is given in Table I.

[3] = system: 5-hydroxytryptophan induced seizures in rats; assay: potentiation of 5-hydroxytryptophan induced seizures in rats; conditions: Rattus norvegicus, ip, intraperitoneal, read-out: ED50 (potentiation of 5-hydroxytryptophan induced seizures in 50% of the animals)
Description: The antidepressant activities of some of the compounds of the invention expressed in terms of a potentiation of 5-hydroxytryptophan induced seizures in 50% of the animals is given in Table II.

[4] = system: spontaneous hypertensive rat; assay: antihypertensive activity in the spontaneous hypertensive rat, indirect tail cuff method; conditions: 50 mg/kg of body weight, oral, three days, measured on third day
Experimental: In this procedure a group of five animals are treated orally for three days with the test compound in relation to the control group of the same number. The drop in blood pressure is measured on the third day following administration.

Clc1cccc(OC2CN(CCc3ccccc3)CCc3ccccc32)c1 (centres unmarked) [1-(m-Chlorophenoxy)-3-(2-phenylethyl)-2,3,4,5-tetrahydro-3-benzazepine oxalate]
inhibition in vivo at 25 mg/kg ([1]; subcutaneous, mice): 42%

Clc1cccc(OC2CN(CC3CC3)CCc3ccccc32)c1 (centres unmarked) [1-(m-Chlorophenoxy)-3-cyclopropylmethyl-2,3,4,5-tetrahydro-3-benzazepine oxalate]
inhibition in vivo at 25 mg/kg ([1]; subcutaneous, mice): 66%

COc1cc2c(cc1OC)C(Oc1cccc(Cl)c1)CNCC2.O=C(O)C(=O)O (centres unmarked) [1-(m-Chlorophenoxy)-7,8-dimethoxy-2,3,4,5-tetrahydro-3-benzazepine oxalate]
ED50 [2]: 4.2 mg/kg
ED50 [3]: 1.1 mg/kg

Br.COc1ccc(OC2CN(C)CCc3ccccc32)cc1 (centres unmarked) [1-(p-Methoxyphenoxy)-3-methyl-2,3,4,5-tetrhydro-3-benzazepine hydrobromide]
Decrease in Blood Pressure (mean arterial) [4]: 48 mm HG
inhibition in vivo at 20 mg/kg ([1]; subcutaneous, mice): 46%

FC(F)(F)c1ccc(OC2CNCCc3ccccc32)cc1.O=C(O)C(=O)O (centres unmarked) [1-(p-Trifluoromethylphenoxy)-2,3,4,5-tetrahydro-3-benzazepine oxalate]
ED50 [3]: 2.9 mg/kg

CC(CN)N1CCc2ccccc2C(Oc2ccc(C(F)(F)F)cc2)C1 (centres unmarked) [3-(2-Amino-1-methyl)ethyl-2,3,4,5-tetrahydro-1-(p-trifluoromethylphenoxy)-3-benzazepine dioxalate]
Decrease in Blood Pressure (mean arterial) [4]: 51 mm HG

NCCN1CCc2ccccc2C(Oc2cccc(Cl)c2)C1.O=C(O)C(=O)O.O=C(O)C(=O)O (centres unmarked) [3-(2-Aminoethyl)-1-(m-chlorophenoxy)-2,3,4,5-tetrahydro-3-benzazepine dioxalate]
ED50 [2]: 7.5 mg/kg

NCCN1CCc2ccccc2C(Oc2ccc(C(F)(F)F)cc2)C1.O=C(O)C(=O)O.O=C(O)C(=O)O (centres unmarked) [3-(2-Aminoethyl)-2,3,4,5-tetrahydro-1-(p-trifluoromethylphenoxy)-3-benzazepine dioxalate]
Decrease in Blood Pressure (mean arterial) [4]: 61 mm HG

CNCCN1CCc2ccccc2C(Oc2ccc(C(F)(F)F)cc2)C1.O=C(O)C(=O)O.O=C(O)C(=O)O (centres unmarked) [3-(2-Methylaminoethyl)-2,3,4,5-tetrahydro-1-(p-trifluoromethylphenoxy)-3-benzazepine dioxalate]
Decrease in Blood Pressure (mean arterial) [4]: 33 mm HG

NCCCN1CCc2ccccc2C(Oc2ccc(C(F)(F)F)cc2)C1 (centres unmarked) [3-(3-Aminopropyl)-2,3,4,5-tetrahydro-1-(p-trifluoromethylphenoxy)-3-benzazepine dimaleate]
inhibition in vivo at 8.2 mg/kg ([1]; subcutaneous, 8.2 mg/kg, mice): 50%

Br.Cc1ccc(OC2CN(C)CCc3ccccc32)cc1 (centres unmarked) [3-Methyl-1-(p-methylphenoxy)-2,3,4,5-tetrahydro-3-benzazepine Hydrobromide]
Decrease in Blood Pressure (mean arterial) [4]: 35 mm HG

COc1cc2c(cc1OC)C(Oc1ccc(F)cc1)CNCC2.O=C(O)/C=C\C(=O)O (centres unmarked) [7,8-Dimethoxy-1-(4-fluorophenoxy)-2,3,4,5-tetrahydro-3-benzazepine maleate]
ED50 [3]: 2.9 mg/kg

COc1ccc(OC2CNCCc3cc(OC)c(OC)cc32)cc1.O=C(O)/C=C\C(=O)O (centres unmarked) [7,8-Dimethoxy-1-(4-methoxyphenoxy)-2,3,4,5-tetrahydro-3-benzazepine maleate]
ED50 [3]: 0.9 mg/kg

COc1ccc(OC2CN(C)CCc3cc(OC)c(OC)cc32)cc1 (centres unmarked) [7,8-Dimethoxy-1-(4-methoxyphenoxy)-3-methyl-2,3,4,5-tetrahydro-3-benzazepine hydrochloride]
inhibition in vivo at 7.6 mg/kg ([1]; subcutaneous, 7.6 mg/kg, mice): 50%

COc1cc2c(cc1OC)C(Oc1ccccc1)CNCC2.O=C(O)C(=O)O (centres unmarked) [7,8-Dimethoxy-1-phenoxy-2,3,4,5-tetrahydro-3-benzazepine oxalate]
ED50 [2]: 3.7 mg/kg
ED50 [3]: 0.85 mg/kg

CCCN1CCc2cc(OC)c(OC)cc2C(Oc2ccccc2)C1.O=C(O)C(=O)O (centres unmarked) [7,8-Dimethoxy-1-phenoxy-3-(n-propyl)-2,3,4,5-tetrahydro-3-benzazepine oxalate]
ED50 [3]: 0.7 mg/kg

COc1cc2c(cc1OC)C(Oc1ccc(C(F)(F)F)cc1)CNCC2 (centres unmarked) [7,8-Dimethoxy-2,3,4,5-tetrahydro-1-(p-trifluoromethylphenoxy)-3-benzazepineoxalate]
Decrease in Blood Pressure (mean arterial) [4]: 49 mm HG

COc1cc2c(cc1OC)C(Oc1ccc(C)cc1)CN(C)CC2 (centres unmarked) [7,8-Dimethoxy-3-methyl-1-(4-methylphenoxy)-2,3,4,5-tetrahydro-3-benzazepinemaleate]
ED50 [3]: 0.9 mg/kg

COc1cc2c(cc1OC)C(Oc1ccccc1)CN(C)CC2.O=C(O)C(=O)O (centres unmarked) [7,8-Dimethoxy-3-methyl-1-phenoxy-2,3,4,5-tetrahydro-3-benzazepine oxalate]
ED50 [2]: 3.8 mg/kg
ED50 [3]: 7.5 mg/kg
inhibition in vivo at 20 mg/kg ([1]; subcutaneous, mice): 58%

COc1cc2c(cc1OC)C(Oc1ccc(C(F)(F)F)cc1)CN(C)CC2.Cl (centres unmarked) [7,8-Dimethoxy-3-methyl-2,3,4,5-tetrahydro-1-(p-trifluoromethylphenoxy)-3-benzazepine hydrochloride]
Decrease in Blood Pressure (mean arterial) [4]: 43 mm HG
inhibition in vivo at 5.7 mg/kg ([1]; subcutaneous, 5.7 mg/kg, mice): 50%

CNCCCN1c2ccccc2CCc2ccccc21 [desipramine, reference compound]
ED50 [2]: 2.3 mg/kg

N=C(N)NCCN1CCCCCCC1 [guanethidine, reference compound]
Decrease in Blood Pressure (mean arterial) [4]: 20 mm HG

CCC(=O)O[C@](Cc1ccccc1)(c1ccccc1)[C@H](C)CN(C)C [propoxyphene, reference compound]
inhibition in vivo at 3.9 mg/kg ([1]; read-out: Inhibition of Writhing): 50%
